Where two headings read alike, the source gives them in different places.
How the values were obtained:
[1] = system: Interleukin-8 (IL-8); experiment: LPS-induced IL-8 secretion from HSNEC (ELISA); type: cell-based, human; settings: n=3
From the text: (§1) Primary HSNECs were collected with prior approval of the Institutional Review Board at University of Alabama at Birmingham (UAB) (IRB-120305017). Written informed consent from each participant was collected and subjects were screened and negative for a mutation in the cystic fibrosis transmembrane conductance regulator gene. Primary HSNECs were derived from turbinate mucosa from 3 healthy donors undergoing surgery for non-inflammatory conditions and cultured on collagen-coated Costar 6.5-mm-diameter permeable filter supports (Corning, Lowell, Mass.) submerged in established culture media. Differentiation and ciliogenesis occurred in all cultures within 10 to 14 days.^17-26 Matured HSNECs with resistance over 300 Ω/cm^2 and 80% field ciliogenesis by inverted microscopy were subjected to experiments.
After the incubation period, the basal media (600 μL) were collected and measured for IL-8 concentration in each sample according to the manufacture's protocol (R&D systems, Minneapolis, Minn.). The secreted IL-8 concentration in each sample was evaluated by measuring the absorbance at 450 nm using a microplate reader (Synergy HK, BIO-TEK Instruments, Winooski, Vt.). All samples were performed in triplicate.
To evaluate the anti-inflammatory effects of azithromycin on HSNEC, cells were stimulated with 25 μg/ml of P. aeruginosa lipopolysaccharide (LPS) for 2 hours, and treated with incremental azithromycin concentrations (6, 60, and 180 μg/ml) (FIG. 13). After a 24-hour incubation period, the basolateral media was harvested and secreted IL-8 was measured.

[2] = system: HSNECs; settings: human, 30 μg/ml
From the text: as §1

[3] = system: HSNECs; experiment: Paracellular permeability of FITC dextran across HSNECs; type: cell-based, human; settings: for average paracellular permeability of dextran particles: human
Description: The diffusion-barrier of […] is determined by a tight epithelial barrier and tight junction formation and is impacted by a number of chemicals. […] The permeated concentrations of FITC dextran were quantified by a fluorescence microplate reader.

[4] = system: HSNECs; experiment: Ciliary beat frequency analysis; type: cell-based, human
Description: After applying 100 μL of sterilized PBS as control or PBS containing drug to the apical surface of the cells, the motion images were acquired for 30 minutes. Under each condition, image acquisition was performed using a Basler area scan high-speed monochromatic digital video camera (Basler AG, Ahrensburg, Germany) at a sampling rate of 100 frames per second. The Sisson-Ammons Video Analysis (SAVA) system was used to acquire CBF. Baseline CBF recording was conducted in the previously described manner, and each analysis of CBF was normalized to fold-change over baseline CBF Hz (treatment/baseline).^28

[5] = system: HSNECs; experiment: HSNEC viability LDH assay; type: cell-based, human
From the text: Concentration gradients generated from internal standards (with positive controls) provided by the manufacturer render a theoretical kit detection range in biological samples containing IL-8. […] Louis, Mo.). […] The resulting formazan absorbs maximally at 492 nm and can be measured quantitatively at 490 nm. Total LDH in each sample was expressed as ng/ml.

SMILES | secreted IL-8 ([1]; azithromycin 6 μg/ml, 25 μg/ml LPS 2 hours, 24-hour incubation) [ng/mL] | secreted IL-8 ([1]; azithromycin 60 μg/ml, 25 μg/ml LPS 2 hours, 24-hour incubation) [ng/mL] | secreted IL-8 ([1]; azithromycin 180 μg/ml, 25 μg/ml LPS 2 hours, 24-hour incubation) [ng/mL] | normalized TEER ([2]; 3 h) | normalized TEER ([2]; 6 h) | paracellular permeability of HSNECs over time [3] | average paracellular permeability of dextran particles ([3]; 3 h) | average paracellular permeability of dextran particles ([3]; 6 h) | ciliary beat frequency [4] | cellular viability of HSNECs, LDH [5] | secreted IL-8 ([1]; ciprofloxacin 2.4 μg/ml alone with LPS exposure) [ng/mL]
CC[C@H]1OC(=O)[C@H](C)[C@@H](O[C@H]2C[C@@](C)(OC)[C@@H](O)[C@H](C)O2)[C@H](C)[C@@H](O[C@@H]2O[C@H](C)C[C@H](N(C)C)[C@H]2O)[C@](C)(O)C[C@@H](C)CN(C)[C@H](C)[C@@H](O)[C@]1(C)O [azithromycin] | 4.579 ± 0.399 | 4.312 ± 0.057 | 4.269 ± 0.258 | 1.14+/−0.06 Ω/cm^2 | 1.02+/−0.37 Ω/cm^2 | No alterations in average paracellular permeability | 0.10+/−0.15% | 3.44+/−0.24% | No significant difference in ciliary beat frequency | No detrimental effect on the cellular viability | –
O=C(O)c1cn(C2CC2)c2cc(N3CCNCC3)c(F)cc2c1=O [ciprofloxacin] | – | – | – | – | – | – | – | – | No significant difference in ciliary beat frequency | No detrimental effect on the cellular viability | 6.40 ± 0.26

From patent US20220387304A1, “MULTI-LAYERED NANOPARTICLE COATED SUBSTRATES FOR DRUG DELIVERY” (The UAB Research Foundation, priority 2019, published 2022)
